In ChEMBL document CHEMBL3774368, “1,2,4-Triazolyl octahydropyrrolo[2,3-b]pyrroles: A new series of potent and selective dopamine D3 receptor antagonists” (Bioorg Med Chem, 2016):
Active and inactive are the calls of the source. No cut-off for these calls is given here.

Key:
D(3) dopamine receptor = D(3) dopamine receptor (Homo sapiens, UniProt P35462); assay: Displacement of [3H]-spiperone from human dopamine D3 receptor expressed in CHO-K1 cell membranes after 90 mins by liquid scintillation counter method
D(2) dopamine receptor [1] = biological target: T1, D(2) dopamine receptor (Homo sapiens, UniProt P14416); assay: Displacement of [3H]-spiperone from human dopamine D2 receptor expressed in CHO-K1 cell membranes after 120 mins by liquid scintillation counter method
[2] = Solubility of compound; type: physicochemical
[3] = biological target: Voltage-gated inwardly rectifying potassium channel KCNH2 (Homo sapiens, UniProt Q12809); assay: Inhibition of human ERG tail current expressed in HEK293 cells after 5 mins by patch clamp assay
Liver microsome [4] = details: rat, microsomes, 0.5 µM
[5] = biological target: Muscarinic acetylcholine receptor M3 (Homo sapiens, UniProt P20309); assay: Antagonist activity at recombinant human muscarinic M3 receptor expressed in CHO-K1 cells assessed as inhibition of acetylcholine induced calcium mobilization preincubated for 10 mins followed by acetylcholine addition measured after 1 hr by fluo-4 AM dye-based FLIPR assay; type: functional, cell-based
[6] = biological target: T2, Muscarinic acetylcholine receptor M1 (Homo sapiens, UniProt P11229); assay: Antagonist activity at recombinant human muscarinic M1 receptor expressed in CHO-K1 cells assessed as inhibition of acetylcholine induced calcium mobilization preincubated for 10 mins followed by acetylcholine addition measured after 1 hr by fluo-4 AM dye-based FLIPR assay; type: functional, cell-based
T2 sequence (P11229 whole entry): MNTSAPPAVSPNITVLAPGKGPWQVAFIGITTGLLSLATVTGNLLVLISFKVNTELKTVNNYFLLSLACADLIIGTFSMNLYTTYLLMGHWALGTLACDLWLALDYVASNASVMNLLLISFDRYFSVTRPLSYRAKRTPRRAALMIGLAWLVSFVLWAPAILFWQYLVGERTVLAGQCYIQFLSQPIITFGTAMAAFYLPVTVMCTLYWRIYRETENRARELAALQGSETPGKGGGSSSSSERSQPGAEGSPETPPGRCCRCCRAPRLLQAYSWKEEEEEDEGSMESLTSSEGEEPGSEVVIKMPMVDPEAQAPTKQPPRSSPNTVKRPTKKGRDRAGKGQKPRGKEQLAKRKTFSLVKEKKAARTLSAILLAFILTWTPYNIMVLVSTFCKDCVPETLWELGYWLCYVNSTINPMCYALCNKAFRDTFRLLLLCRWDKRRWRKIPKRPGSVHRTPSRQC

[7] = Permeability across apical to basolateral side in human Caco2 cells; details: Caco-2, permeability
Liver microsome [8] = details: human, microsomes, 0.5 µM
D(2) dopamine receptor [9] = biological target: T1, D(2) dopamine receptor; assay: Antagonist activity at human dopamine D2L receptor expressed in CHO cells assessed as inhibition of dopamine-mediated Ca+2 stimulation pretreated for 10 mins followed by addition of dopamine by fluo-4 AM dye-based FLIPR assay; type: cell-based
[10] = Clearance in portal vein cannulated Sprague-Dawley rat blood; details: whole blood
Cytochrome P450 2C19 = Cytochrome P450 2C19 (Homo sapiens, UniProt P33261); assay: Inhibition of recombinant human CYP2C19 expressed in baculosomes preincubated for 10 mins followed by cofactor addition measured every minute for 10 mins using 3-butyryl-7-methoxycoumarin as substrate by CYPEX assay
[11] = Fraction absorbed in portal vein cannulated Sprague-Dawley rat model; details: in vivo
[12] = Half life in portal vein cannulated Sprague-Dawley rat model; details: in vivo
in vitro [13] = details: human, liver microsomes, CLH
Cytochrome P450 3A4 [14] = biological target: T3, Cytochrome P450 3A4 (Homo sapiens, UniProt P08684); assay: Inhibition of recombinant human CYP3A4 expressed in baculosomes preincubated for 10 mins followed by cofactor addition measured every minute for 10 mins using diethoxyflourescein as substrate by CYPEX assay
Cytochrome P450 2D6 = Cytochrome P450 2D6 (Homo sapiens, UniProt P10635); assay: Inhibition of recombinant human CYP2D6 expressed in baculosomes preincubated for 10 mins followed by cofactor addition measured every minute for 10 mins using 4-methylaminomethyl-7-methoxycoumarin as substrate by CYPEX assay
Cytochrome P450 1A2 = biological target: T4, Cytochrome P450 1A2 (Homo sapiens, UniProt P05177); assay: Inhibition of recombinant human CYP1A2 expressed in baculosomes preincubated for 10 mins followed by cofactor addition measured every minute for 10 mins using ethoxyresorufin as substrate by CYPEX assay
T4 sequence (P05177 whole entry): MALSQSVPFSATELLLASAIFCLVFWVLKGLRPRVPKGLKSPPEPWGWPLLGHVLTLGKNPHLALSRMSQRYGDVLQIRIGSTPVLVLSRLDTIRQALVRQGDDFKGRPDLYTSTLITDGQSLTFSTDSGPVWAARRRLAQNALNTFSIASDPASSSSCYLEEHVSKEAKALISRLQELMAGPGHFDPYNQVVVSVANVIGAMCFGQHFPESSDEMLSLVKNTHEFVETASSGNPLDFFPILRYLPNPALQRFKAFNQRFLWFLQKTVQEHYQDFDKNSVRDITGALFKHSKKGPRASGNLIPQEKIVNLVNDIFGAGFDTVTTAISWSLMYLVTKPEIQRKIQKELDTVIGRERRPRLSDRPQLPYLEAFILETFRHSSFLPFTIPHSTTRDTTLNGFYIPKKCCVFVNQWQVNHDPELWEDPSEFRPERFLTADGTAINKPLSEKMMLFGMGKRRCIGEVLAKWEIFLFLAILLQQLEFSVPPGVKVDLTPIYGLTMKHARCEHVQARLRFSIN

Cytochrome P450 3A4 [15] = biological target: T3, Cytochrome P450 3A4; assay: Inhibition of recombinant human CYP3A4 expressed in baculosomes preincubated for 10 mins followed by cofactor addition measured every minute for 10 mins using 7-benzyloxyquinoline as substrate by CYPEX assay
in vitro [16] = details: rat, liver microsomes, CLH
[17] = Volume of distribution at steady state in portal vein cannulated Sprague-Dawley rat model; details: in vivo
Cytochrome P450 2C9 = Cytochrome P450 2C9 (Homo sapiens, UniProt P11712); assay: Inhibition of recombinant human CYP2C9 expressed in baculosomes preincubated for 10 mins followed by cofactor addition measured every minute for 10 mins using 7-methoxy-4-trifluoromethylcoumarin-3-acetic acid as substrate by CYPEX assay
[18] = biological target: D(1A) dopamine receptor (Homo sapiens) (UniProt P21728); assay: Binding affinity to dopamine D1 receptor (unknown origin)
Homo sapiens = species on record: Homo sapiens; assay: Selectivity ratio of IC50 for human ERG to Ki for human dopamine D3 receptor
[19] = Fraction unbound in Sprague-Dawley rat blood
[20] = Fraction unbound in Sprague-Dawley rat brain
[21] = biological target: T5, D(4) dopamine receptor (Homo sapiens) (UniProt P21917); assay: Binding affinity to dopamine D4 receptor (unknown origin)
T5 sequence (whole entry): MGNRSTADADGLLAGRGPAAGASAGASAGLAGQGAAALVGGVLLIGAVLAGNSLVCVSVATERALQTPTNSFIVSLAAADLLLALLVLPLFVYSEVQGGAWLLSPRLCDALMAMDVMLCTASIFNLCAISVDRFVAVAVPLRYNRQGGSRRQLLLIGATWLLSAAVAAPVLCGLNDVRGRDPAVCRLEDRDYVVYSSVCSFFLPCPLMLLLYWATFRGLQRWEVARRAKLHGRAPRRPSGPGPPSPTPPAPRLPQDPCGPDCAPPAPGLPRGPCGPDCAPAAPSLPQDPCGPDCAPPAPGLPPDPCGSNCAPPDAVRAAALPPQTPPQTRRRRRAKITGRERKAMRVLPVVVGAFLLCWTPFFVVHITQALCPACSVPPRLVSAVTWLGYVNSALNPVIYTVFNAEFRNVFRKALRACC

Sequence of Voltage-gated inwardly rectifying potassium channel KCNH2 (Q12809 whole entry): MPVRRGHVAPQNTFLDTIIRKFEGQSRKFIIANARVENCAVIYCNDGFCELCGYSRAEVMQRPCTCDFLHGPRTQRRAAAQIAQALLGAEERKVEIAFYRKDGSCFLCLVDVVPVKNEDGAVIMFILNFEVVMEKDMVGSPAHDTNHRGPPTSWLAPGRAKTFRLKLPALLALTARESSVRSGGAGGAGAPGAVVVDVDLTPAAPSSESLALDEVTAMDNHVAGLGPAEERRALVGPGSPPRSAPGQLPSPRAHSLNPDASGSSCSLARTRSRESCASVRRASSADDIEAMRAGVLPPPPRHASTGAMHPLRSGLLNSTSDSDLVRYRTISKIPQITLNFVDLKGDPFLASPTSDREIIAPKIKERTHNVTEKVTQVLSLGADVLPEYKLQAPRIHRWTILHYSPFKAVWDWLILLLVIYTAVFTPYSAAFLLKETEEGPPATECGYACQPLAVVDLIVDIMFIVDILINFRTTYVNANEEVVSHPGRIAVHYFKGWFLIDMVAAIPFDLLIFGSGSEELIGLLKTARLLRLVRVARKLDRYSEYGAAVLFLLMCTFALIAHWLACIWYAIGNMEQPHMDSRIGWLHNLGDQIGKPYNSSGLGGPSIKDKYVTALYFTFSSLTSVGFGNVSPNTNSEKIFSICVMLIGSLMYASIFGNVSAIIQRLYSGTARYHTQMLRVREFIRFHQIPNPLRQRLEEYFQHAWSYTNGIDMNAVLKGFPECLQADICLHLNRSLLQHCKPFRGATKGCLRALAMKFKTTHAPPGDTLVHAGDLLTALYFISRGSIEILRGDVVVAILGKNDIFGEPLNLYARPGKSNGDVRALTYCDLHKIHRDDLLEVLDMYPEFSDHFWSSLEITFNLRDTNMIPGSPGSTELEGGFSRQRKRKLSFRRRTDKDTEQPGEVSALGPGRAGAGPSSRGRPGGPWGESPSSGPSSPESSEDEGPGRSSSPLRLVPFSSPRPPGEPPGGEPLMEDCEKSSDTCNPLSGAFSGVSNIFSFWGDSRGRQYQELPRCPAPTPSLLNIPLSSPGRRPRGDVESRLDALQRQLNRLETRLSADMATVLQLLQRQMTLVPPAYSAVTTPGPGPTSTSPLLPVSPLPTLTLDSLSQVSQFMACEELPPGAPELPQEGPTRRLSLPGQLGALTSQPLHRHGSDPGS
Sequence of Cytochrome P450 2C19 (P33261 whole entry): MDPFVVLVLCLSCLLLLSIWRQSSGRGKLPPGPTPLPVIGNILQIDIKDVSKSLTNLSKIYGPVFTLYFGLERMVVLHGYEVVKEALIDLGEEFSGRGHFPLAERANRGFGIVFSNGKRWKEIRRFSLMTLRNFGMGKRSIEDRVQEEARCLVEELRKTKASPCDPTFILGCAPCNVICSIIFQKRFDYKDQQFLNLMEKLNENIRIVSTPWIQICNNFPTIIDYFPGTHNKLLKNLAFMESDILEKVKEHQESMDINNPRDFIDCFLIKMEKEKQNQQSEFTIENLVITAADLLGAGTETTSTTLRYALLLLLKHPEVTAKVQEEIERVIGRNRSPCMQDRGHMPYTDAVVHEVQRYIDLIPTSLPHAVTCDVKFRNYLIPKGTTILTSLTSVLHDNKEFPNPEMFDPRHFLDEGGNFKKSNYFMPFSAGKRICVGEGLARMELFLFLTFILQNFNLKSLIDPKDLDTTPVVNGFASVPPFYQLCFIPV
T3 sequence (P08684 whole entry): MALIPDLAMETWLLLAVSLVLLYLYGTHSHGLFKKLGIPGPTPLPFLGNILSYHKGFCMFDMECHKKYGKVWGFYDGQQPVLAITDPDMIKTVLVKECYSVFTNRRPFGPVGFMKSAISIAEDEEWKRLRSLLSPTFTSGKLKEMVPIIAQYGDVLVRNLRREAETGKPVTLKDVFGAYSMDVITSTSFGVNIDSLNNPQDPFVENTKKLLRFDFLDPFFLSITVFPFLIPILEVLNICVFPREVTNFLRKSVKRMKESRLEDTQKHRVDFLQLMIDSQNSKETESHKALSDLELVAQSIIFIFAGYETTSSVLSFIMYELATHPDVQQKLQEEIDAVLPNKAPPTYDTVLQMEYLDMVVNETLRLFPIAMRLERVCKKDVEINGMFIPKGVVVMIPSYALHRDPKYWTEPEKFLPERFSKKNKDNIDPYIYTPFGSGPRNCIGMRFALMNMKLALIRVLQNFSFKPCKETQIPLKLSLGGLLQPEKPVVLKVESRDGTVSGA
Sequence of Muscarinic acetylcholine receptor M3 (P20309 whole entry): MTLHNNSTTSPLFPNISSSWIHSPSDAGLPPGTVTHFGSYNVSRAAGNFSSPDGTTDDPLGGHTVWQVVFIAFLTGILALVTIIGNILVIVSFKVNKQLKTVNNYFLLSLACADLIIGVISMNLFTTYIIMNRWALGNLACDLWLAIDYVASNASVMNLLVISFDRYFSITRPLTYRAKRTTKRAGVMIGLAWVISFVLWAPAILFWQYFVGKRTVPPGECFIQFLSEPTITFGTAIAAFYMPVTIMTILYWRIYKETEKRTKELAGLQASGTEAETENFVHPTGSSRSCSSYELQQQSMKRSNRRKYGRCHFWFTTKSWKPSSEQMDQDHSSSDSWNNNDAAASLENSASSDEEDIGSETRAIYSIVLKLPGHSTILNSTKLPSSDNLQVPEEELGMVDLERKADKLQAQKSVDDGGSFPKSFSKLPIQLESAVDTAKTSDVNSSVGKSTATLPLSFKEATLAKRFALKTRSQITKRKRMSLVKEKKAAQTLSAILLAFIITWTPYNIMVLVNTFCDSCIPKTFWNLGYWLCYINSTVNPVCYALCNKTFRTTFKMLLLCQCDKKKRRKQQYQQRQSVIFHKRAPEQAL
T1 sequence (P14416 whole entry): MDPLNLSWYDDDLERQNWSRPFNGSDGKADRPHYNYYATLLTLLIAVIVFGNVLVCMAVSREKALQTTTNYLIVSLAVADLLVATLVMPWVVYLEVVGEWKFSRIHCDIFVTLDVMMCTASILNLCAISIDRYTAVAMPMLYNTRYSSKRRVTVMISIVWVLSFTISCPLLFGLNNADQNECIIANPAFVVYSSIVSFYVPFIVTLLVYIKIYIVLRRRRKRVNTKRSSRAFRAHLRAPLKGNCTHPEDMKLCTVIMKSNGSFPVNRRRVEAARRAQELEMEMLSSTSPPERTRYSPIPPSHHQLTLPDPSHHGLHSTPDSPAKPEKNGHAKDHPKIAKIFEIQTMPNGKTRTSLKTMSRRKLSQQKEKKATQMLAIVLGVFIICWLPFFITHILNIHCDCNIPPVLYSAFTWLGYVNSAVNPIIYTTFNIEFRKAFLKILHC
Sequence of D(3) dopamine receptor (P35462 whole entry): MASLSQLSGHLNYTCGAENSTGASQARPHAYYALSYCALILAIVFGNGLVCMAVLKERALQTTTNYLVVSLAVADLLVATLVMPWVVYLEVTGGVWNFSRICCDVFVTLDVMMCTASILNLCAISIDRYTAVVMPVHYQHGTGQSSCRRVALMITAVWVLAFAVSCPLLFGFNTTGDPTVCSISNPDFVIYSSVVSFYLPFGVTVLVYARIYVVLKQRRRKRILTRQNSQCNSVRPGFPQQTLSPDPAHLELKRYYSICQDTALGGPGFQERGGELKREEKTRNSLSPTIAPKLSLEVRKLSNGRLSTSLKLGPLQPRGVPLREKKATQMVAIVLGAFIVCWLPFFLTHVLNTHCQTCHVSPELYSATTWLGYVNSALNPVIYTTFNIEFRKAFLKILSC
Sequence of Cytochrome P450 2D6 (P10635 whole entry): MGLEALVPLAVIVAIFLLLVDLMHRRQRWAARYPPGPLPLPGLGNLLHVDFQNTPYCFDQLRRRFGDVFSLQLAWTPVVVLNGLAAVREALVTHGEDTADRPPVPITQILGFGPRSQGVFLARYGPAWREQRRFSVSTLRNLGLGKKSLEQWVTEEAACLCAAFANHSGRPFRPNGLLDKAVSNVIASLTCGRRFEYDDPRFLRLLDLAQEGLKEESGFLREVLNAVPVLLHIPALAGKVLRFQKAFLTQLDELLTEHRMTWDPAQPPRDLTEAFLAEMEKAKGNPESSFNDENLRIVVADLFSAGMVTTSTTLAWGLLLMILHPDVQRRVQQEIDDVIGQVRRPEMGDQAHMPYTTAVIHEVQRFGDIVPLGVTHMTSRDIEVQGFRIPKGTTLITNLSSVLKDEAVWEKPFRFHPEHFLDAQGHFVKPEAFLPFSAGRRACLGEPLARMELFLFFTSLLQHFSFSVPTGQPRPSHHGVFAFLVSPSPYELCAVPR
Sequence of Cytochrome P450 2C9 (P11712 whole entry): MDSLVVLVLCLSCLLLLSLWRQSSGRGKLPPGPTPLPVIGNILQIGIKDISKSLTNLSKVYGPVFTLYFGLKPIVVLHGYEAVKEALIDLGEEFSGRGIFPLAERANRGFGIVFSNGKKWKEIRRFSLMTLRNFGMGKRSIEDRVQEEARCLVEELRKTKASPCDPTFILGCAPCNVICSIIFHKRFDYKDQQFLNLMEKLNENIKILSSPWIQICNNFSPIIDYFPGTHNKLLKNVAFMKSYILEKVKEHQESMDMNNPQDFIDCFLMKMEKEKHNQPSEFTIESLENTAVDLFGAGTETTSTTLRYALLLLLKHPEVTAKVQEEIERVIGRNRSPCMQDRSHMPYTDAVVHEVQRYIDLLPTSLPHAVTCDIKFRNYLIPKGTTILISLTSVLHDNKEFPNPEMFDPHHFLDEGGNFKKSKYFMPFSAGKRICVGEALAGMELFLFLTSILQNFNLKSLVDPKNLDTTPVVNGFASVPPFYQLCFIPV
Sequence of D(1A) dopamine receptor (Homo sapiens) (P21728 whole entry): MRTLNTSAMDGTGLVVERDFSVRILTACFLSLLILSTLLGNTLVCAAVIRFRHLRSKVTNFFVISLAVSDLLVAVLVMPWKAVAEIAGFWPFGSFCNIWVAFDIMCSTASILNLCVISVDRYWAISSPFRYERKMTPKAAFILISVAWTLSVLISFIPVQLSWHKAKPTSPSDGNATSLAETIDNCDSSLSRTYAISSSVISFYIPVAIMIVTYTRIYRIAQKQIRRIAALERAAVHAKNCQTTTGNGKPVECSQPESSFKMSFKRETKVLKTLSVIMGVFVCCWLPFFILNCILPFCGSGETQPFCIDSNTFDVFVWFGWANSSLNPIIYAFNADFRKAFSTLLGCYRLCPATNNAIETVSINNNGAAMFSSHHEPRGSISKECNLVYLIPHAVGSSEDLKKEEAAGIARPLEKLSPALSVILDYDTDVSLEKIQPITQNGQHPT

Ki (D(3) dopamine receptor) [nM] | Ki (D(2) dopamine receptor [1]) [nM] | Ki [5] [nM] | Ki [6] [nM] | IC50 (Cytochrome P450 2C19) [nM] | microsomal CLint at 0.5 µM (in vitro [13]) [µL/min/mg] | IC50 (Cytochrome P450 3A4 [14]) [nM] | IC50 (Cytochrome P450 2D6) [nM] | IC50 (Cytochrome P450 1A2) [nM] | IC50 (Cytochrome P450 3A4 [15]) [nM] | microsomal CLint at 0.5 µM (in vitro [16]) [µL/min/mg] | IC50 (Cytochrome P450 2C9) [nM] | Compound | IC50 [3] [nM] | also measured
0.631 | 31.6 | – | – | – | – | – | – | – | – | – | – | Cc1ncoc1-c1nnc(SCCCN2CC3CCN(c4cccc(C#N)c4)C3C2)n1C (stereo in doubt; 12a) | < 100 | solubility [2]: > 2200 µg/mL
5.01 | – | 479 | 380 | – | – | – | – | – | – | – | – | Cn1c(SCCCN2CC3CCN(c4ccc(C(F)(F)F)cc4)C3C2)nnc1-c1ccc(=O)n(C)c1 (stereo in doubt; 57b) | – | CLH (Liver microsome [4]): 30 µL/min; Papp A→B [7]: 5.3 ×10⁻⁶ cm/s; CLH (Liver microsome [8]): 111 µL/min
– | 251 | 1260 | 1000 | > 1000 | 88 | > 1000 | > 1000 | > 1000 | > 1000 | 364 | > 1000 | Cc1ncoc1-c1nnc(SCCCN2CC3CCN(c4ccccc4)C3C2)n1C (stereo in doubt; 6b) [listing 1 of 2 here] | 1260 | Ki (D(2) dopamine receptor [9]): 158 nM; clearance [10]: 80.1 mL/min/kg; Fa [11]: 50%; half-life [12]: 18 min; Vd [17]: 2.2 L/kg
– | – | – | – | – | – | – | – | – | – | – | – | Cc1ncoc1-c1nnc(SCCCN2CC3CCN(c4ccccc4)C3C2)n1C (stereo in doubt; 6b) [listing 2 of 2 here] | – | Activity [18]: inactive
3.16 | 158 | – | – | – | – | – | – | – | – | – | – | Cc1ncoc1-c1nnc(SCCCN2CC3CCN(c4cccc(F)c4)C3C2)n1C (racemic) | 251 | Selectivity ratio (Homo sapiens): 100
3.98 | 316 | – | – | > 1000 | > 650 | > 1000 | > 1000 | > 1000 | > 1000 | > 650 | > 1000 | Cn1c(SCCCN2CC3CCN(c4ccc(F)cc4F)C3C2)nnc1-c1cnccn1 (stereo in doubt; 36b) | – | –
7.94 | 251 | – | – | > 1000 | > 750 | > 1000 | > 1000 | > 1000 | > 1000 | > 750 | > 1000 | CC(C)Oc1ccccc1N1CCC2CN(CCCSc3nnc(-c4cnccn4)n3C)CC21 (stereo in doubt; 35b) | – | fraction unbound [19]: 0.024; fraction unbound [20]: 0.13
– | – | – | – | – | – | – | – | – | – | – | – | Cn1c(SCCCN2CC3CCN(c4ccc(C(F)(F)F)cc4)C3C2)nnc1-c1cc[nH]c(=O)c1 (racemic) | – | Selectivity ratio (Homo sapiens): > 100
– | – | – | – | – | – | – | – | – | – | – | – | Cn1c(SCCCN2CC3CCN(c4ccccc4)C3C2)nnc1C1CCOCC1 (stereo in doubt; 62a) | – | Activity [18]: inactive; Activity [21]: inactive
– | 398 | 2190 | 631 | > 3000 | > 750 | > 3000 | > 3000 | > 3000 | 920 | > 750 | > 3000 | Cn1c(SCCCN2CC3CCN(c4ccccc4C(F)(F)F)C3C2)nnc1-c1cccnc1 (stereo in doubt; 52a) | – | –
